From paper PMC5622107, “Small molecule inhibition of cGAS reduces interferon expression in primary macrophages from autoimmune mice” (Nature Communications, 2017) come the findings set out here.

The target of one test is T1, cGAS/dsDNA complex (Mus musculus, UniProt Q8C6L5).
T1 construct: full-length (for high-throughput screening) and residues 147–507 (for structural study) of cGAS; His6-SUMO (N, cleaved yes); made in house; host or cells: E. coli BL21(DE3) RIL
The test is described as follows: Isothermal titration calorimetry, compound titrated into cGAS/dsDNA complex. It is filed as binding. The method, then:
ITC measurements were performed at 25 °C using a MicroCal auto-iTC200 calorimeter (MicroCal, LLC). Purified truncated mouse cGAS was dialyzed against 40 mM HEPES buffer (pH 7.5) and 300 mM NaCl for 24 h at 4 °C. Dialysis led to some precipitation, which were removed through centrifugation followed by collection of the supernatant. The concentration of the protein in supernatant was measured using Pierce® BCA protein assay. The protein was flash frozen in liquid N2 and stored at −80 °C. For the ITC assay, the dialyzed protein was prediluted to 20 µM in the dialysis buffer and diluted to a final concentration of 10 µM in a final buffer containing 40 mM HEPES, 1% DMSO, 150 mM NaCl, 0.01% Tween-20 and + /− dsDNA 10 µM and + /− ATP or GTP 1 mM. Then, 2 μl RU.365 100 µM, dissolved in the buffer aforementioned, were injected into 0.2 ml of protein in the chamber every 150 s. Data for raw ITC and thermodynamic curves, each from one experiment, were downloaded after analysis using Affinimeter software and plotted using GraphPad Prism (7.01). The software calculates error bars as an indication of the contribution of the raw data noise that is determined from the integral of the standard deviation of the baseline during the injection.
In general terms: ITC needs no label: the signal is the heat of the interaction.

For test [1], the system named is cGAS activity in dsDNA-stimulated RAW macrophages. The test is described as follows: Cellular luciferase assay, interferon-responsive reporter in dsDNA-stimulated RAW macrophages. It is filed as cell-based. Particulars: Mus musculus, Macrophage, dsDNA-activated RAW cells. The method, then: (§1) The sequence and annealing conditions of the dsDNA used is described above. Typically, 0.4 µg or 0.6 µg of dsDNA was used to stimulate RAW-Lucia ISG-KO-TREX1/ISG-KO-cGAS or RAW-Lucia ISG cells, respectively, which equated to 90% of maximal luciferase activity observed. dsDNA stimulation of RAW macrophages and subsequent luciferase measurements were performed with or without the addition of small molecules at indicated concentrations in each figure, or with DMSO as vehicle control. For the dose curve experiments, serial dilutions of inhibitors were applied to 6.7 × 10^5 cells, plated in 24-well dishes, and co-stimulated with 0.4 µg of dsDNA. In subsequent experiments using inhibitors in RAW cells, the small molecules were used at concentrations representing the derived EC75 values, while co-stimulated with one of the following: 0.4 µg dsDNA, 50 nM 5′ppp-HP20 hairpin RNA (a kind gift from Dr Anna Pyle, Yale University; sequence located in Supplementary Table 5), 10 µM cGAMP, or 100 U ml^−1 murine recombinant Ifnb (R&D Systems). dsDNA was transfected using Lipofectamine LTX. 5′ppp-HP20 RNA was transfected using Lipofectamine 2000. Cells were harvested 24 h post-transfection, washed with PBS, and lysed in 1× Luciferase Cell Lysis Buffer (Pierce).
(§2) The minimum numbers of biological and technical replicates for the luciferase assays were two and three, respectively. Analysis of luminescence values were evaluated for outliers (one standard deviation above and below the mean) for each biological replicate, and the resulting means were used to generate graphs in GraphPad Prism (v. 7.0c); where applicable, an unpaired t-test with Welch’s correction was used to compare the results of each individual compound to dsDNA or other stimulant. The experimental variances observed within control samples (untreated or vehicle) and treated samples were similar.

For test [2], the system named is RAW macrophage cells stimulated with 5′ppp-HP20 RNA, Pam3CSK4, poly(I:C), LPS or recombinant Ifnb. The test is described as follows: Selectivity: RAW macrophages stimulated with non-DNA immunogenic ligands (luciferase reporter or Il-6 qRT-PCR). It is filed as cell-based, mouse. On the procedure: as §1, §2
The small molecules were used at concentrations representing the EC75 values and were co-stimulated with either 200 ng Pam3CSK4 (Invivogen), 25 µg poly(I:C) or 100 ng lipopolysaccharide (Sigma-Aldrich) at the cell counts and conditions previously described for the cellular luciferase assays. Cells were harvested 24 h post-transfection, washed with PBS, and RNA was extracted using Trizol (Ambion) and chloroform (Sigma-Aldrich). In all, 1–2 µg of total RNA was reverse-transcribed using random hex primers and SuperScript III (Life Technologies) into cDNA. […] The expression of mRNAs […] murine Actb1 and Il-6 were measured (see Supplementary Table 5 for primer sequences used). Target C T values were normalized to Actb1 C T values and used to calculate ΔC T. mRNA expression of target genes were then calculated using the ΔΔC T method (2^ΔΔCT). Expression values were analyzed as described in the method for cellular luciferase assays.

The next test deals with 45-bp dsDNA. The test is described as follows: DNA intercalation: acridine orange displacement from dsDNA by fluorescence polarization. It is filed as binding. In short, it runs like this: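 Acridine orange displacement from 45-bp dsDNA in HEN buffer (10 mM HEPES pH 7.5, 1 mM EDTA, 100 mM NaCl), compounds at 30 µM final, 30 min incubation. Fluorescence polarization read in mP, buffer-corrected, G-factor 1.0; mitoxantrone 50 µM and DMSO as controls.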

The mark [3] stands for this setting: cGAS in presence of dsDNA, no ATP/GTP.

Values joined by “and” are separate entries in the source; they are usually repeats but may differ in a detail not shown here. Equal entries are not always repeated. “Also recorded” adds a separate entry of the source.

T1 sequence (Q8C6L5 147-507, one chain of several): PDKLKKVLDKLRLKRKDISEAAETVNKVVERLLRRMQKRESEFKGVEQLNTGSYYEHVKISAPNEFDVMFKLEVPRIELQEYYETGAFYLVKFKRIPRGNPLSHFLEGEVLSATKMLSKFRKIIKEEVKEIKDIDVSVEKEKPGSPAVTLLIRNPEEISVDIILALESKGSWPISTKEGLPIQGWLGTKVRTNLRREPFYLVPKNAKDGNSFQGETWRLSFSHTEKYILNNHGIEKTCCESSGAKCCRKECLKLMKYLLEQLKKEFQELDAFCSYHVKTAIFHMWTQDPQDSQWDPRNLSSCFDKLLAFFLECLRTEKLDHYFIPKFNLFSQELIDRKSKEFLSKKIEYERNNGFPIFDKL

Broadly, the Kd is the constant that tells how readily two partners part at equilibrium. As a reminder, the IC50 is the concentration needed to halve the response being measured. For the compound `Cc1nn(-c2nc3ccccc3[nH]2)c(O)c1C1OC(=O)c2ccccc21` (stereo not shown) [RU166365], the “T*ΔS” value on cGAS/dsDNA complex (cGAS in presence of dsDNA) was -4.504 kcal/mol; at cGAS/dsDNA complex (cGAS/dsDNA + ATP 1 mM), -2.493 kcal/mol; at cGAS/dsDNA complex (cGAS/dsDNA + GTP 1 mM) it was -3.668 kcal/mol. Further, the results for the rM at cGAS/dsDNA complex (cGAS in presence of dsDNA), at cGAS/dsDNA complex (cGAS/dsDNA + ATP 1 mM) and on cGAS/dsDNA complex (cGAS/dsDNA + GTP 1 mM) were 0.9075, 0.9605 and 0.9257, respectively. The ΔG on cGAS/dsDNA complex (cGAS in presence of dsDNA) is -9.813 kcal/mol; at cGAS/dsDNA complex (cGAS/dsDNA + ATP 1 mM), -9.524 kcal/mol; on cGAS/dsDNA complex (cGAS/dsDNA + GTP 1 mM) it was -8.902 kcal/mol. Further, the ΔH on cGAS/dsDNA complex (cGAS in presence of dsDNA) is -14.32 kcal/mol; at cGAS/dsDNA complex (cGAS/dsDNA + ATP 1 mM), -12.02 kcal/mol; on cGAS/dsDNA complex (cGAS/dsDNA + GTP 1 mM), -12.57 kcal/mol. The dissociation constant (Kd) at cGAS/dsDNA complex (setting [3]) was 64.1 nM and 64 nM; at cGAS/dsDNA complex (cGAS/dsDNA + 1 mM ATP), 104 nM; on cGAS/dsDNA complex (cGAS/dsDNA + 1 mM GTP) it was 298 nM. The compound further had an IC50 in test [1] of 4980 nM. In addition, the “Il-6 mRNA expression” value in test [2] (cells activated by Pam3CSK4, poly(I:C), or LPS, qRT-PCR) is listed as “increased Il-6 messenger RNA (mRNA) expression”. In addition, in the test on 45-bp dsDNA (Supplementary Table 2, acridine orange displacement compared to mitoxantrone), the “% intercalation at 30 µM” value is given as -6.7%. Further, the Polarization in the test on 45-bp dsDNA (Supplementary Table 2, compound 30 µM) amounted to 264 mP.
As for `Cc1nn(-c2nc3ccc(Cl)c(Cl)c3[nH]2)c(O)c1C1OC(=O)c2ccccc21` (stereo not shown) [RU320521, 3-[1-(6,7-dichloro-1H-benzimidazol-2-yl)-5-hydroxy-3-methyl-pyrazol-4-yl]-3H-isobenzofuran-1-one], at cGAS/dsDNA complex (cGAS in presence of dsDNA), the “T*ΔS” value was -6.134 kcal/mol, the rM stood at 0.8071, the ΔG was -10.15 kcal/mol and the ΔH is -16.29 kcal/mol. Further, the Kd on cGAS/dsDNA complex (setting [3]) came to 36.2 nM. The compound further gave an IC50 in test [1] of 700 nM. Also, the “inhibition of cells stimulated with recombinant Ifnb” value in test [2] (JAK/STAT signaling, luciferase reporter) was “did not inhibit”. In test [2] (compound at EC75, 5′ppp-HP20 RNA, Pam3CSK4, poly(I:C), LPS, Ifnb, listed as RU.521), the “suppression of activation by immunogenic stimuli other than dsDNA” value was “unable to potently suppress activation; also recorded: little to no inhibitory effects”. In addition, the “DNA intercalation or interaction” value with 45-bp dsDNA (acridine orange competition screen) is given as “did not show any indication that it could act in a manner that could intercalate or interact with DNA”.
